Data reported in patent US10159268B2, “Reduced sodium food products” (GENERAL MILLS, INC., priority 2013, dated 2018).

Columns and labels:
[1] = Na-solution DAP test: trained panel rates saltiness of compounds in sodium solution; format: in vivo; design: key: DAP score; >3.1 indicates saltiness or salt enhancement; conditions: single compound in sodium solution; best DAP score of tested concentrations 0.1, 1 and 10 ppm; DAP score greater than 3.1 indicates saltiness or salt enhancement
Protocol: (§1) Briefly, each individual tested compound was placed in water and in sodium solution to test saltiness and saltiness enhancement potential. Tests in water were executed in a compound concentration of 10 ppm. Tests in sodium solution were executed in compound concentrations of 0.1, 1 and 10 ppm. Two control sodium solutions with known organoleptic salt intensities were provided as references for each test. The test for individual compounds was also conducted using simple broth instead of sodium solution. A number of compound combinations identified from the Na-solution DAP test were used for the broth DAP test. Tests were executed with a trained panel of 9-12 assessors. For Na-solution DAP tests, a DAP score of greater than 3.1 indicates saltiness or salt enhancement. The DAP score can be correlated with a sodium reduction potential by subtracting 3.1 from the DAP score. […] For broth DAP tests, a DAP score of greater than 7.6 indicates saltiness or salt enhancement. The DAP score can be correlated with a sodium reduction potential by subtracting 7.6 from the DAP score.

[2] = Broth DAP test: trained panel rates saltiness of compounds in simple broth; format: in vivo; design: key: DAP score; >7.6 indicates saltiness or salt enhancement in broth; conditions: single compound in simple broth; best DAP score of tested concentrations 0.1, 1 and 10 ppm; DAP score greater than 7.6 indicates saltiness or salt enhancement
Protocol: as §1

Compound | DAP in Na-Sol. [1] | DAP in Broth [2]
CCC(O)CC(=O)CCc1ccccc1 (stereo not shown) [Compound 12, a 1-Ph-5-OH-3-heptanone] | 4 | 7.6
COc1cc2c(c(OC)c1OC)-c1c(cc3c(c1OC)OCO3)C[C@H](C)[C@@](C)(O)C2 [Compound 44, Schizandrol B; Gomisin A] | 3.8 | 8.6
C=C[C@@]1(C)CC(=O)C2[C@]3(C)C(C[C@@H](O)[C@@]2(O)C1=O)C(C)(C)[C@H](OC(C)=O)[C@H](OC(C)=O)[C@@H]3OC(=O)c1ccccc1 (stereo partly shown) [Compound 32, Orthosiphol I] | 3.5 | 8.1
C=C[C@@]1(C)CC(=O)C2[C@]3(C)C(C[C@@H](OC(C)=O)[C@@]2(O)C1=O)C(C)(C)[C@H](O)[C@H](OC(C)=O)[C@@H]3OC(=O)c1ccccc1 (stereo partly shown) [Compound 33, Orthosiphol M] | 3.4 | 7.7
COc1cc(C2c3cc4c(cc3CC3COC(=O)C32)OCO4)cc(OC)c1OC (stereo not shown) [Compound 59, Isoanthricin] | 3.3 | 7.9
COc1c(OC)c(OC)c2c(c1OC)c(=O)c1ccccc1n2C [Compound 23, Melicopicine] | 2.9 | 8.3
C=CC(C)(O)CC[C@@]1(C)C2=C([C@H](OC(C)=O)[C@H](OC(C)=O)[C@H]1C)C(C)(C)CCC2 (stereo partly shown) [Compound 29, Vitetrifolin D] | 3.5 | 8.0
COc1cc2c(c(OC)c1OC)-c1c(cc3c(c1OC)OCO3)CC(C)C(C)C2 (stereo not shown) [Compound 46, Schizandrin B] | 3.6 | 7.8
Brevifolin [Compound 53] | 3.7 | 8.5
CCCCCCCCC/C=C/C(=O)CCc1ccc(O)c(OC)c1 [Compound 2, [10]-Shogaol] | 3.5 | 7.8
C=CC(C)(O)CC/C=C(\C)C(=O)OC1C(OCC2OC(OC(=O)C34CCC(C)(C)CC3C3=CCC5C6(C)CCC(OC7OC(COC8OCC(O)C(O)C8OC8OCC(O)C(O)C8O)C(O)C(O)C7O)C(C)(C)C6CCC5(C)C3(C)CC4O)C(OC3OC(C)C(OC4OCC(O)C(OC5OCC(O)C(O)C5O)C4O)C(O)C3O)C(OC(=O)/C(C)=C/CCC(C)(O)C=C)C2O)OC(C)C(O)C1O (stereo not shown) [Compound 35] | 3.7 | 8.1
